The source of these data is PMC6435784, “Gut Microbiota-Based Pharmacokinetics and the Antidepressant Mechanism of Paeoniflorin” (Frontiers in Pharmacology, 2019).

Broadly, the AUC(0-t) is the area under the concentration-time curve up to a stated or last time point. As usually defined, the Cmax is the highest concentration seen after dosing. One may read the AUC(0-inf) as the area under the concentration-time curve extrapolated to infinity. One may read the Tmax as the time at which the peak concentration occurs.

For one data set, the system named is carboxylesterase. In words: Effect of BNPP inhibition on the transformation of paeoniflorin in intestinal culture system. In kind it is cell-based, rat gut microbiota. The settings on record: 24 h, 1 mg/mL paeoniflorin. The protocol:
The colon contents of six rats were pooled, and 5 g of the sample was transferred to a ziplock bag and then mixed thoroughly with anaerobic medium (100 mL). After mixing completely, the cultures were stored at 37°C and preincubated for 1 h. Then, 10 μL of paeoniflorin (100 mg/mL) was added to fresh rat intestinal microbial culture (990 μL) under anaerobic conditions of N2, with a final concentration of 1 mg/mL of paeoniflorin in the culture system ([Hattori et al., 1988]). The inactivated bacteria solution was used as a negative control. Cultures were incubated at 37°C for 0, 2, 6, 12, and 24 h, respectively. After terminated the reaction with 3 volumes of acetonitrile, samples were vortexed for 30 s and then centrifuged at 16,162 g for 5 min. A total of 100 μL of the supernatant were transferred to a centrifuge tube, centrifuged at 16,162 g for 5 min and filtered through a 0.45 μm microporous membrane. Finally, 5 μL of the filtrate solution was collected for analysis.
Consistent with the above steps, the carboxylesterase inhibitor BNPP (0.1, 1, 3, and 10 mM) was added to the culture system at different concentrations with a final concentration of 1 mg/mL paeoniflorin. Then, the cultures were incubated at 37°C for 0, 2, 6, 12, and 24 h. The intestinal culture system without BNPP was used as a control group.

Data set [1] is described as follows: Brain distribution of paeoniflorin and benzoic acid in rats. In kind it is in vivo, rat. The conditions noted are these: at 2 h after oral administration of paeoniflorin 20 mg/kg.
The nature of data set [2]: Excretion of paeoniflorin in rats (urine, feces, bile). In kind it is in vivo, rat. The conditions noted are these: normal rats, oral paeoniflorin 20 mg/kg, excreted form = labelled substance, n = 6. The procedure:
Then, urine samples and feces samples were collected at 0, 6, 12, 24, 48, 72, and 96 h.

Experiment in data set [3]: as above
The settings on record: normal rats, paeoniflorin 20 mg/kg, excreted form = labelled substance, n = 6. In kind it is in vivo, rat.

Data set [4] can be described thus: Pharmacokinetics of paeoniflorin in pseudo-germ-free (PGF) rats. The format is in vivo. The conditions noted are these: SD, rat, in vivo, oral paeoniflorin 20 mg/kg, plasma analyte = labelled substance; for AUC(0-t) / Cmax: po, 20 mg/kg. The protocol: Chromatography separation was performed using an XSS T3 column (3.5 μm, 2.1 mm × 100 mm, Waters, Milford, MA, United States) with the column temperature maintained at 40°C at a flow rate of 0.4 mL/min. […] The gradient was as follows: 25% eluent B for 2 min; 25–85% B from 2 to 4 min; 85–25% B from 4 to 5 min and held at 25% from 5 to 7 min. The autosampler temperature was set to 4°C. Mass spectrometry was carried out using multiple reaction monitoring mode (MRM). […] The nebulizing gas flow rate was 2.8 L/min, the drying gas flow rate was 10 L/min, and the heating gas flow rate was 10 L/min. […] The remaining fourteen SD rats were orally administered saline equivalently. Two days after administration, pharmacokinetic experiments were performed. […] Plasma samples were immediately stored at 4°C until analysis. Statistical analyses were conducted using two-way ANOVA and Student’s t-test with GraphPad Prism Version 5 (GraphPad Software, La Jolla, CA, United States). The data are expressed as the means ± standard deviation. […] DAS 3.0 was used to calculate the plasma pharmacokinetic parameters.

Data set [5] is described as follows: Pharmacokinetics of paeoniflorin in normal SD rats (plasma, LC-MS/MS). The format is in vivo, rat. The settings on record: normal rats, oral paeoniflorin 20 mg/kg, plasma analyte = labelled substance. The protocol:
Chromatography separation was performed using an XSS T3 column (3.5 μm, 2.1 mm × 100 mm, Waters, Milford, MA, United States) with the column temperature maintained at 40°C at a flow rate of 0.4 mL/min. […] The gradient was as follows: 25% eluent B for 2 min; 25–85% B from 2 to 4 min; 85–25% B from 4 to 5 min and held at 25% from 5 to 7 min. The autosampler temperature was set to 4°C. Mass spectrometry was carried out using multiple reaction monitoring mode (MRM). […] The nebulizing gas flow rate was 2.8 L/min, the drying gas flow rate was 10 L/min, and the heating gas flow rate was 10 L/min. […] Plasma samples were immediately stored at 4°C until analysis. The method validation assays were carried out in terms of specificity, linearity, sensitivity, accuracy, precisions, recovery, matrix effect and stability. […] Statistical analyses were conducted using two-way ANOVA and Student’s t-test with GraphPad Prism Version 5 (GraphPad Software, La Jolla, CA, United States). The data are expressed as the means ± standard deviation. […] DAS 3.0 was used to calculate the plasma pharmacokinetic parameters.

In another data set the test system is depressed rats. In words: Chronic unpredictable stress depression model, sucrose preference test. In kind it is in vivo, rat. The settings on record: 10 mg/kg, after 2 weeks of drug treatment, compared with model group, n = 8. The protocol: Forty rats were randomly divided into the following groups (n = 8): the normal control group, the model control group, the fluoxetine group (10 mg/kg), the paeoniflorin low-dose group (10 mg/kg), and the paeoniflorin high-dose group (20 mg/kg). Except for the blank control group, the groups were randomly exposed to two stressors, including behavioral constraints, ice water swimming, electric shock, cold stimulation, clip tail, wet bedding, light/dark reversed, shaking, foods and water deprivation, continuously for 8 weeks to establish a chronic unpredictable stress model. The sucrose preference test was performed at 0 and 14 days after administration.

[6] abbreviates: PGF rats (antibiotic pretreated).

`O=[N+]([O-])c1ccc(OP(=O)(O)Oc2ccc([N+](=O)[O-])cc2)cc1` [BNPP, bis-p-nitrophenyl phosphate]: the “inhibition rate of the conversion of paeoniflorin to benzoic acid” value in the data set with carboxylesterase (BNPP 0.1 mM) came to 8.2%; in the data set with carboxylesterase (BNPP 1 mM), 46.8%; in the data set on carboxylesterase (BNPP 3 mM), 63.7%; in the data set on carboxylesterase (BNPP 10 mM), 74.9%.

In the case of `O=C(O)c1ccccc1` [Benzoic acid, benzoic acid], the “detection in SD rat brains” value in data set [1] was “considerable number”. The “96-h cumulative excretion in feces” value in data set [2] stood at 0.15%. Moreover, the “96-h cumulative excretion in urine” value in data set [2] came to 42.13%. Further, in data set [3], the “cumulative excretion rate in bile for 60 h” value was “No benzoic acid was detected”. The area under the curve AUC(0-t) in data set [4] (PGF rats (antibiotic pretreated), read-out: AUC (0-t)) came to 94.8 ± 19.8 ng·h/mL; in data set [4] (PGF rats, Figures 3B, 3C, read-out: AUC(0-t) (unit inferred)) it was 68.5 ng·h/mL; in data set [5] (SD, rat, in vivo, po, 20 mg/kg, Figures 2C, 3B, 3C, read-out: AUC(0-t) (unit inferred)), 151 ng·h/mL; in data set [5] (SD, rat, in vivo, po, 20 mg/kg, n = 6, read-out: AUC (0-t)) it was 151 ng·h/mL; in data set [5] (n = 6) it was 151.24 ± 29.59 ng·h/mL. Also, the peak concentration (Cmax) came to 27.6 ± 2.63 ng/mL in data set [4] (PGF rats (antibiotic pretreated), read-out: Cmax); 25.4 ng/mL in data set [4] (PGF rats, Figures 3B, 3C, read-out: Cmax (unit inferred)); 55.6 ng/mL in data set [5] (SD, rat, in vivo, po, 20 mg/kg, Figures 2C, 3B, 3C, read-out: Cmax (unit inferred)); 55.6 ± 12.1 ng/mL in data set [5] (SD, rat, in vivo, po, 20 mg/kg, n = 6, read-out: Cmax); 55.6 ng/mL in data set [5] (SD, rat, in vivo, po, 20 mg/kg, read-out: Cmax). Also, the AUC(0-inf) in data set [4] (setting [6]) came out at 97.2 ± 20.2 ng·h/mL; in data set [5] (SD, rat, in vivo, n = 6), 162 ± 40.1 ng·h/mL. Also, the time to peak (Tmax) turned out to be 35.8 ± 14.3 min in data set [4] (setting [6]) and 47.5 ± 11.3 min in data set [5] (SD, rat, in vivo, n = 6).

For the molecule `CNCCC(Oc1ccc(C(F)(F)F)cc1)c1ccccc1` (centres unmarked) [fluoxetine, reference compound], in the data set on depressed rats, the sucrose preference value entry is reported as “significantly higher than that of the model control group”.
